Consider 24 compounds from patent US20220396565A1 (Hoffmann-La Roche Inc., priority 2020, published 2022).

Where a name gives a salt, the structure may show the parent alone.

As a reminder, the IC90 is the concentration at which the effect reaches the 90% level.

This experiment relates to Acinetobacter baumannii ATCC17961. Nature of the experiment: Antimicrobial susceptibility testing: 90% growth inhibitory concentration (IC90) determination, Iso-Sensitest broth. In kind it is cell-based. Particulars: Acinetobacter baumannii, ATCC17961, 90% growth inhibitory concentration, Acinetobacter baumannii ATCC17961, Iso-Sensitest broth; read-out: ATCC 17961 IC90. In short, it runs like this: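 Growth at OD600 was monitored every 20 min for 16 h at 35±2 °C, with bacteria inoculated at ~5×10^(5) CFU/ml into Iso-Sensitest medium. Compounds were tested as 10-point twofold dilutions (e.g. 10–0.02 μM final). The 90% inhibitory concentration comes from the log-phase growth.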
Take `COc1ccc(-c2cnc(C(=O)Nc3ccc(C(=O)N4CCC(NC(=O)C5CCNCC5)C4)c(Cl)c3)n2C)c(F)c1F` (stereo not drawn) [Example 110, N-[1-[2-chloro-4-[[5-(2,3-difluoro-4-methoxy-phenyl)-1-methyl-imidazole-2-carbonyl]amino]benzoyl]pyrrolidin-3-yl]piperidine-4-carboxamide formate]: the IC90 came to 180 nM.
Then `COc1ccc(-c2cnc(C(=O)Nc3ccc(C(=O)N4CCC(NC(=O)CCOCCN)C4)c(Cl)c3)n2C)c(F)c1F` (stereo not drawn) [Example 111, N-[4-[3-[3-(2-aminoethoxy)propanoylamino]pyrrolidine-1-carbonyl]-3-chloro-phenyl]-5-(2,3-difluoro-4-methoxy-phenyl)-1-methyl-imidazole-2-carboxamide formate], with 300 nM; and `COc1ccc(-c2cnc(C(=O)Nc3ccc(C(=O)N4CC5(C4)CN(C(=O)[C@@H]4C[C@@H](O)CN4)C5)c(Cl)c3)n2C)c(F)c1F` [Example 112, N-[3-chloro-4-[2-[(2S,4R)-4-hydroxypyrrolidine-2-carbonyl]-2,6-diazaspiro[3.3]heptane-6-carbonyl]phenyl]-5-(2,3-difluoro-4-methoxy-phenyl)-1-methyl-imidazole-2-carboxamide], with 230 nM; and `COc1ccc(-c2cnc(C(=O)Nc3ccc(C(=O)N4CCN(C(=O)C5(O)CCNCC5)CC4)c(C)c3)n2C)c(Cl)c1F` [Example 118, 5-(2-chloro-3-fluoro-4-methoxy-phenyl)-N-[4-[4-(4-hydroxypiperidine-4-carbonyl)piperazine-1-carbonyl]-3-methyl-phenyl]-1-methyl-imidazole-2-carboxamide formate], with 140 nM.
Under `COc1ccc(-c2cnc(C(=O)Nc3ccc(C(=O)N4CCN(C(=O)C5CC6(CNC6)C5)CC4)c(C)c3)n2C)c(Cl)c1F` [Example 119, N-[4-[4-(2-azaspiro[3.3]heptane-6-carbonyl)piperazine-1-carbonyl]-3-methyl-phenyl]-5-(2-chloro-3-fluoro-4-methoxy-phenyl)-1-methyl-imidazole-2-carboxamide; formic acid] stands 120 nM; under `COc1ccc(-c2cnc(C(=O)Nc3ccc(C(=O)N4CCN(C(=O)C5CCN(C(=O)CN(C)C)CC5)CC4)c(Cl)c3)n2C)c(F)c1F` [Example 120, N-[3-chloro-4-[4-[1-[2-(dimethylamino)acetyl]piperidine-4-carbonyl]piperazine-1-carbonyl]phenyl]-5-(2,3-difluoro-4-methoxy-phenyl)-1-methyl-imidazole-2-carboxamide], 60 nM; under `COc1ccc(-c2cnc(C(=O)Nc3ccc(C(=O)N4CCN(C(=O)CCCN)CC4)c(Cl)c3)n2C)c(F)c1F` [Example 121, N-[4-[4-(4-aminobutanoyl)piperazine-1-carbonyl]-3-chloro-phenyl]-5-(2,3-difluoro-4-methoxy-phenyl)-1-methyl-imidazole-2-carboxamide; formic acid], 40 nM.
Regarding `COc1ccc(-c2cnc(C(=O)Nc3ccc(C(=O)N4CCN(C(=O)CCCC(N)=O)CC4)c(Cl)c3)n2C)c(F)c1F` [Example 122, N-[4-[4-(5-amino-5-oxo-pentanoyl)piperazine-1-carbonyl]-3-chloro-phenyl]-5-(2,3-difluoro-4-methoxy-phenyl)-1-methyl-imidazole-2-carboxamide], the IC90 came out at 90 nM.
Under `COc1ccc(-c2cnc(C(=O)Nc3ccc(C(=O)N4CCN(C(=O)CCN)CC4)c(Cl)c3)n2C)c(F)c1F` [Example 123, N-[4-[4-(3-aminopropanoyl)piperazine-1-carbonyl]-3-chloro-phenyl]-5-(2,3-difluoro-4-methoxy-phenyl)-1-methyl-imidazole-2-carboxamide formate] stands 40 nM.
Then `COc1ccc(-c2cnc(C(=O)Nc3ccc(C(=O)N4CCN(C(=O)CCCCN)CC4)c(Cl)c3)n2C)c(F)c1F` [Example 124, N-[4-[4-(5-aminopentanoyl)piperazine-1-carbonyl]-3-chloro-phenyl]-5-(2,3-difluoro-4-methoxy-phenyl)-1-methyl-imidazole-2-carboxamide formate], with 40 nM; and `COc1ccc(-c2cnc(C(=O)Nc3ccc(C(=O)N4CCN(C(=O)C5CCC(=O)NC5)CC4)c(Cl)c3)n2C)c(F)c1F` (stereo not drawn) [Example 125, N-[3-chloro-4-[4-(6-oxopiperidine-3-carbonyl)piperazine-1-carbonyl]phenyl]-5-(2,3-difluoro-4-methoxy-phenyl)-1-methyl-imidazole-2-carboxamide], with 110 nM.
Under `COc1ccc(-c2cnc(C(=O)Nc3ccc(C(=O)N4CCN(C(=O)C5CCC(=O)N5)CC4)c(Cl)c3)n2C)c(F)c1F` (stereo not drawn) [Example 126, N-[3-chloro-4-[4-(5-oxopyrrolidine-2-carbonyl)piperazine-1-carbonyl]phenyl]-5-(2,3-difluoro-4-methoxy-phenyl)-1-methyl-imidazole-2-carboxamide] stands 110 nM.
With `COc1ccc(-c2cnc(C(=O)Nc3ccc(C(=O)N4CCN(C(=O)CC5CCC(=O)N5)CC4)c(Cl)c3)n2C)c(F)c1F` (stereo not drawn) [Example 127, N-[3-chloro-4-[4-[2-(5-oxopyrrolidin-2-yl)acetyl]piperazine-1-carbonyl]phenyl]-5-(2,3-difluoro-4-methoxy-phenyl)-1-methyl-imidazole-2-carboxamide], the IC90 was found to be 100 nM.
Then `COc1ccc(-c2cnc(C(=O)Nc3ccc(C(=O)N4CCN(C(=O)CC5NC(=O)NC5=O)CC4)c(Cl)c3)n2C)c(F)c1F` (stereo not drawn) [Example 128, N-[3-chloro-4-[4-[2-(2,5-dioxoimidazolidin-4-yl)acetyl]piperazine-1-carbonyl]phenyl]-5-(2,3-difluoro-4-methoxy-phenyl)-1-methyl-imidazole-2-carboxamide], with 270 nM; and `COc1ccc(-c2cnc(C(=O)Nc3ccc(C(=O)N4CCN(C(=O)CC5CNC(=O)C5)CC4)c(Cl)c3)n2C)c(F)c1F` (stereo not drawn) [Example 129, N-[3-chloro-4-[4-[2-(5-oxopyrrolidin-3-yl)acetyl]piperazine-1-carbonyl]phenyl]-5-(2,3-difluoro-4-methoxy-phenyl)-1-methyl-imidazole-2-carboxamide], with 40 nM; and `COc1ccc(-c2cnc(C(=O)Nc3ccc(C(=O)N4CCN(C(=O)CCCC[C@@H]5SC[C@@H]6NC(=O)N[C@@H]65)CC4)c(Cl)c3)n2C)c(F)c1F` [Example 130, N-[4-[4-[5-[(3aS,4S,6aR)-2-oxo-1,3,3a,4,6,6a-hexahydrothieno[3,4-d]imidazol-4-yl]pentanoyl]piperazine-1-carbonyl]-3-chloro-phenyl]-5-(2,3-difluoro-4-methoxy-phenyl)-1-methyl-imidazole-2-carboxamide], with 260 nM.
Then `COc1ccc(-c2cnc(C(=O)Nc3ccc(C(=O)N4CCN(C(=O)CCOCCOCCN)CC4)c(Cl)c3)n2C)c(F)c1F` [Example 131, N-[4-[4-[3-[2-(2-aminoethoxy)ethoxy]propanoyl]piperazine-1-carbonyl]-3-chloro-phenyl]-5-(2,3-difluoro-4-methoxy-phenyl)-1-methyl-imidazole-2-carboxamide formate], with 90 nM; and `COc1ccc(-c2cnc(C(=O)Nc3ccc(C(=O)N4CCN(C(=O)C56CC(N)(C5)C6)CC4)c(Cl)c3)n2C)c(F)c1F` [Example 132, N-[4-[4-(3-aminobicyclo[1.1.1]pentane-1-carbonyl)piperazine-1-carbonyl]-3-chloro-phenyl]-5-(2,3-difluoro-4-methoxy-phenyl)-1-methyl-imidazole-2-carboxamide formate], with 70 nM.
Take `COc1ccc(-c2cnc(C(=O)Nc3ccc(C(=O)N4CCN(C(=O)C5CNC(=O)N5)CC4)c(Cl)c3)n2C)c(F)c1F` (stereo not drawn) [Example 133, N-[3-chloro-4-[4-(2-oxoimidazolidine-4-carbonyl)piperazine-1-carbonyl]phenyl]-5-(2,3-difluoro-4-methoxy-phenyl)-1-methyl-imidazole-2-carboxamide]: the IC90 was found to be 170 nM.
Under `COc1ccc(-c2cnc(C(=O)Nc3ccc(C(=O)N4CCN(C(=O)CCC#N)CC4)c(Cl)c3)n2C)c(F)c1F` [Example 134, N-[3-chloro-4-[4-(3-cyanopropanoyl)piperazine-1-carbonyl]phenyl]-5-(2,3-difluoro-4-methoxy-phenyl)-1-methyl-imidazole-2-carboxamide] stands 100 nM; under `COc1ccc(-c2cnc(C(=O)Nc3ccc(C(=O)N4CCN(C(=O)CCCNC(=N)N)CC4)c(Cl)c3)n2C)c(F)c1F` [Example 135, N-[3-chloro-4-[4-(4-guanidinobutanoyl)piperazine-1-carbonyl]phenyl]-5-(2,3-difluoro-4-methoxy-phenyl)-1-methyl-imidazole-2-carboxamide formate], 30 nM; under `Cn1c(-c2ccc(OCF)c(F)c2F)cnc1C(=O)Nc1ccc(C(=O)N2CCN(C(=O)C3[C@H]4CNC[C@@H]34)CC2)c(Cl)c1` (stereo partly drawn) [Example 136, N-[4-[4-[(1R,5S)-3-azabicyclo[3.1.0]hexane-6-carbonyl]piperazine-1-carbonyl]-3-chloro-phenyl]-5-[2,3-difluoro-4-(fluoromethoxy)phenyl]-1-methyl-imidazole-2-carboxamide formate], 30 nM.
Then `COc1ccc(-c2cnc(C(=O)Nc3ccc(C(=O)N4CCN(C(=O)[C@H]5C[C@H](N)C5)CC4)c(Cl)c3)n2C)c(F)c1F` [Example 137, N-[4-[4-(3-aminocyclobutanecarbonyl)piperazine-1-carbonyl]-3-chloro-phenyl]-5-(2,3-difluoro-4-methoxy-phenyl)-1-methyl-imidazole-2-carboxamide formate], with 40 nM; and `COc1ccc(-c2cnc(C(=O)Nc3ccc(C(=O)N4CCN(C(=O)[C@@H]5CCNC5)CC4)c(Cl)c3)n2C)c(F)c1F` [Example 138, N-[3-chloro-4-[4-[(3R)-pyrrolidine-3-carbonyl]piperazine-1-carbonyl]phenyl]-5-(2,3-difluoro-4-methoxy-phenyl)-1-methyl-imidazole-2-carboxamide formate], with 30 nM.
